The results in this text go back to patent US20090105217A1, “2-PHENYL-5-AMINO-1,3,4-OXADIAZOLES AND THEIR USE AS NICOTINIC ACETYLCHOLINE RECEPTOR LIGANDS” (priority 2007, published 2009).

T1 sequence (P36544 23-502): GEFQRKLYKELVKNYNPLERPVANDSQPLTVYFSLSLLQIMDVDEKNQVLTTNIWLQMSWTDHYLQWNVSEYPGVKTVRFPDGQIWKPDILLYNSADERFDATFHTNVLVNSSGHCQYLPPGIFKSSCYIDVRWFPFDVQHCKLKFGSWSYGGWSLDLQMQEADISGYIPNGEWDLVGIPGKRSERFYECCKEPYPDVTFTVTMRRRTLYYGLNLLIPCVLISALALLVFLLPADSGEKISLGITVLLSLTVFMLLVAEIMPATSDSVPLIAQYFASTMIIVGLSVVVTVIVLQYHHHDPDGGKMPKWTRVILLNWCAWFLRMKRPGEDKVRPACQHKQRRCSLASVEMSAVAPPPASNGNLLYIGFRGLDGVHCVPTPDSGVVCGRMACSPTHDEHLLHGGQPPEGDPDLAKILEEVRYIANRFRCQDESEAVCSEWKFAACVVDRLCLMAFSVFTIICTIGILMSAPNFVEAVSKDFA

One experiment concerns the target T1, human α7 nAChR (Homo sapiens, UniProt P36544).
T1 construct: host or cells: GH4C1 cells (pituitary tumor, immortalized cell line)
Nature of the experiment: α7 nAChR FLIPR (Fluorometric Imaging Plate Reader) Ca2+ assay, agonist EC50. It counts as cell-based. Particulars: GH4C1 cells stably transfected with human α7 nAChR; Fluo-4 Ca2+ fluorescence; Examples 194 to 205 tested as the HCl salt; read-out: pEC50 value (negative logarithm of the agonist EC50) (converted). Put shortly: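 GH4C1 cells stably expressing human α7 nAChR, loaded with 2 μM Fluo-4 for 45–60 min at 37 °C in HEPES buffer pH 7.3 with 2 mM CaCl2 and 2.5 mM probenecid. Peak calcium fluorescence (ex 488, em 510–580 nm) after compound addition fitted for agonist EC50, reported as pEC50.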
The EC50 is the concentration that produces a half-maximal response. As to `CCN(CC)CCCNc1nnc(-c2ccc(NC(=O)c3ccc(OC)cc3)cc2OC)o1` [Example 225, N-[4-(5-{[3-(diethylamino)propyl]amino}-1,3,4-oxadiazol-2-yl)-3-(methyloxy)phenyl]-4-(methyloxy)benzamidetrifluoroacetate], the EC50 was at most 1000 nM. As to `COc1cc(NC(=O)c2c(F)cccc2F)ccc1-c1nnc(NCCCN2CCOCC2)o1` [Example 226, 2,6-difluoro-N-[3-(methyloxy)-4-(5-{[3-(4-morpholinyl)propyl]amino}-1,3,4-oxadiazol-2-yl)phenyl]benzamidetrifluoroacetate], the EC50 was at most 1000 nM.

For the compound `COc1cc(NC(=O)CC(C)C)ccc1-c1nnc(NCCCN2CCOCC2)o1` [Example 229, 3-methyl-N-[3-(methyloxy)-4-(5-{[3-(4-morpholinyl)propyl]amino}-1,3,4-oxadiazol-2-yl)phenyl]butanamidetrifluoroacetate], the EC50 is at most 1000 nM.

Consider `CCN(CC)CCCNc1nnc(-c2ccc(NC(=O)CC(C)C)cc2OC)o1` [Example 230, N-[4-(5-{[3-(diethylamino)propyl]amino}-1,3,4-oxadiazol-2-yl)-3-(methyloxy)phenyl]-3-methylbutanamidetrifluoroacetate], for which the EC50 is at most 1000 nM. Still for that read-out and setting: under `CCN(CC)CCCNc1nnc(-c2ccc(NC(=O)C3CC3)cc2OC)o1` [Example 231, N-[4-(5-{[3-(diethylamino)propyl]amino}-1,3,4-oxadiazol-2-yl)-3-(methyloxy)phenyl]cyclopro-panecarboxamidetrifluoroacetate] stands at most 1000 nM; under `COc1cc(NC(=O)C2CCCC2)ccc1-c1nnc(NCCCN2CCOCC2)o1` [Example 234, N-[3-(methyloxy)-4-(5-{[3-(4-morpholinyl)propyl]amino}-1,3,4-oxadiazol-2-yl)phenyl]cyclopentane-carboxamidetrifluoroacetate], at most 1000 nM. On to `CCN(CC)CCCNc1nnc(-c2ccc(NC(=O)C3CCCC3)cc2OC)o1` [Example 235, N-[4-(5-{[3-(diethylamino)propyl]amino}-1,3,4-oxadiazol-2-yl)-3-(methyloxy)phenyl]cyclo-pentanecarboxamidetrifluoroacetate], for which the EC50 was at most 1000 nM.

Still in this experiment, the particulars now being: alpha 7 assay described in the Examples.
As for `CN(C)CCCN(C)c1nnc(-c2ccc(NC(=O)c3ccccc3F)cc2)o1` [N-(4-{5-[[3-(dimethylamino)propyl](methyl)amino]-1,3,4-oxadiazol-2-yl}phenyl)-2-fluorobenzamide], the “activity in the alpha 7 assay” value is “not found to have activity”.

Turning to `O=C(Nc1ccc(-c2nnc(NCCCN3CCCC(F)(F)C3)o2)cc1)c1ccccc1F` [N-[4-(5-{[3-(3,3-difluoro-1-piperidinyl)propyl]amino}-1,3,4-oxadiazol-2-yl)phenyl]-2-fluorobenzamide], the “activity in the alpha 7 assay” value is “not found to have activity”.

For `CCN(CC)CCCNc1nnc(-c2ccc(NC(=O)c3ccc(OC)cc3)cc2)o1` [N-[4-(5-{[3-(Diethylamino)propyl]amino}-1,3,4-oxadiazol-2-yl)phenyl]-4-(methyloxy)benzamide], the “activity in the alpha 7 assay” value was “not found to have activity”. Consider `CCCN(CCC)CCCNc1nnc(-c2ccc(NC(=O)c3ccccc3F)cc2)o1` [N-[4-(5-{[3-(dipropylamino)propyl]amino}-1,3,4-oxadiazol-2-yl)phenyl]-2-fluorobenzamide], for which the “activity in the alpha 7 assay” value was “not found to have activity”.
